From publication PMC5218480 (PLoS ONE, 2017)

System: MV-4-11 cells
Assay: Gene expression microarray analysis (Affymetrix PrimeView) and GSEA
Type: cell-based, human
Design: RFU PODN (11730768_x_at) / Fold change /veh PODN (11730768_x_at) / RFU LINC00158 (11744669_a_at) / Fold change /veh LINC00158 (11744669_a_at) / RFU DUSP10 (11751237_a_at) / Fold change /veh DUSP10 (11751237_a_at) / RFU ID3 (11757404_x_at) / Fold change /veh ID3 (11757404_x_at) / RFU PLEKHG5 (11737974_s_at) / Fold change /veh PLEKHG5 (11737974_s_at) / RFU LRRC4B (11730491_at) / Fold change /veh LRRC4B (11730491_at) / RFU GIMAP4 (11747438_a_at) / Fold change /veh GIMAP4 (11747438_a_at) / RFU KRT8 (11758183_x_at) / Fold change /veh KRT8 (11758183_x_at) / RFU CNN1 (11734310_a_at) / Fold change /veh CNN1 (11734310_a_at) / RFU VPS37D (11726825_at) / Fold change /veh VPS37D (11726825_at) / RFU C10orf10 (11716522_x_at) / Fold change /veh C10orf10 (11716522_x_at) / RFU KIR2DL2 /// KIR2DL4 /// KIR2DL5A /// KIR2DL5B /// KIR2DS1 /// KIR2DS2 /// KIR2DS3 /// KIR2DS4 /// KIR3DL3 /// KIR3DL3 /// KIR3DS1 (11738374_at) / Fold change /veh KIR2DL2 /// KIR2DL4 /// KIR2DL5A /// KIR2DL5B /// KIR2DS1 /// KIR2DS2 /// KIR2DS3 /// KIR2DS4 /// KIR3DL3 /// KIR3DL3 /// KIR3DS1 (11738374_at) / RFU C1QL1 (11718748_at) / Fold change /veh C1QL1 (11718748_at) / RFU TMPRSS4 (11747572_a_at) / Fold change /veh TMPRSS4 (11747572_a_at) / RFU HAMP (11756126_x_at) / Fold change /veh HAMP (11756126_x_at) / RFU RNFT2 (11725882_a_at) / Fold change /veh RNFT2 (11725882_a_at) / RFU NR4A2 (11747474_a_at) / Fold change /veh NR4A2 (11747474_a_at) / RFU ABCC12 (11746883_a_at) / Fold change /veh ABCC12 (11746883_a_at) / RFU TMEM136 (11760407_x_at) / Fold change /veh TMEM136 (11760407_x_at) / RFU CLDN22 /// WWC2 (11732394_at) / Fold change /veh CLDN22 /// WWC2 (11732394_at) / RFU HLA-DPB1 (11760878_x_at) / Fold change /veh HLA-DPB1 (11760878_x_at) / RFU SPINT1 (11716480_a_at) / Fold change /veh SPINT1 (11716480_a_at) / RFU GAP43 (11754022_s_at) / Fold change /veh GAP43 (11754022_s_at) / RFU A4GNT (11735810_at) / Fold change /veh A4GNT (11735810_at) / RFU PRB3 (11715151_x_at) / Fold change /veh PRB3 (11715151_x_at) / RFU TUBB4B (11761932_at) / Fold change /veh TUBB4B (11761932_at) / RFU CAPN14 (11732068_a_at) / Fold change /veh CAPN14 (11732068_a_at) / RFU TMCC2 (11721928_a_at) / Fold change /veh TMCC2 (11721928_a_at) / RFU IRGQ (11745062_a_at) / Fold change /veh IRGQ (11745062_a_at) / RFU FAM174B (11720279_a_at) / Fold change /veh FAM174B (11720279_a_at) / RFU TMPRSS4 (11748680_a_at) / Fold change /veh TMPRSS4 (11748680_a_at) / RFU FAM212B (11763350_a_at) / Fold change /veh FAM212B (11763350_a_at) / RFU PLEKHG5 (11743358_a_at) / Fold change /veh PLEKHG5 (11743358_a_at) / RFU ZSCAN30 (11745921_a_at) / Fold change /veh ZSCAN30 (11745921_a_at) / RFU CMKLR1 (11741424_a_at) / Fold change /veh CMKLR1 (11741424_a_at) / RFU LOC101060620 /// MAPK8IP1 (11723275_at) / Fold change /veh LOC101060620 /// MAPK8IP1 (11723275_at) / RFU SPTSSB (11747773_x_at) / Fold change /veh SPTSSB (11747773_x_at) / RFU PRSS12 (11739890_at) / Fold change /veh PRSS12 (11739890_at) / RFU BIN1 (11741810_x_at) / Fold change /veh BIN1 (11741810_x_at) / RFU WNT11 (11732464_a_at) / Fold change /veh WNT11 (11732464_a_at) / RFU C10orf10 (11716521_a_at) / Fold change /veh C10orf10 (11716521_a_at) / RFU C5orf56 (11738089_at) / Fold change /veh C5orf56 (11738089_at) / RFU CYB561 (11721691_x_at) / Fold change /veh CYB561 (11721691_x_at) / RFU ANKRD19P (11752326_a_at) / Fold change /veh ANKRD19P (11752326_a_at) / RFU OR2T12 /// OR2T33 /// OR2T8 (11738714_s_at) / Fold change /veh OR2T12 /// OR2T33 /// OR2T8 (11738714_s_at) / RFU VCAN (11748164_a_at) / Fold change /veh VCAN (11748164_a_at) / RFU JSRP1 (11732532_at) / Fold change /veh JSRP1 (11732532_at) / RFU KRTAP10-11 (11738290_x_at) / Fold change /veh KRTAP10-11 (11738290_x_at) / RFU MYO3A (11730013_a_at) / Fold change /veh MYO3A (11730013_a_at) / RFU EBF3 (11725865_a_at) / Fold change /veh EBF3 (11725865_a_at) / RFU CAMK2N1 (11719241_x_at) / Fold change /veh CAMK2N1 (11719241_x_at) / RFU C5orf56 (11738088_a_at) / Fold change /veh C5orf56 (11738088_a_at) / RFU OLFML3 (11715873_a_at) / Fold change /veh OLFML3 (11715873_a_at) / RFU LOC100653217 /// NTM (11731650_a_at) / Fold change /veh LOC100653217 /// NTM (11731650_a_at) / RFU MAPK11 (11762145_a_at) / Fold change /veh MAPK11 (11762145_a_at) / RFU FIZ1 (11724087_x_at) / Fold change /veh FIZ1 (11724087_x_at) / RFU OASL (11726364_x_at) / Fold change /veh OASL (11726364_x_at) / RFU SOX15 (11748057_x_at) / Fold change /veh SOX15 (11748057_x_at) / RFU CD79A (11719716_a_at) / Fold change /veh CD79A (11719716_a_at) / RFU HIST1H1D (11736915_at) / Fold change /veh HIST1H1D (11736915_at) / RFU CASKIN2 (11723855_a_at) / Fold change /veh CASKIN2 (11723855_a_at) / RFU LOC730098 (11760151_x_at) / Fold change /veh LOC730098 (11760151_x_at) / RFU OR4N2 (11742367_at) / Fold change /veh OR4N2 (11742367_at) / RFU PRRT2 (11749266_a_at) / Fold change /veh PRRT2 (11749266_a_at) / RFU SNX32 (11753110_a_at) / Fold change /veh SNX32 (11753110_a_at) / RFU CDHR5 (11726645_a_at) / Fold change /veh CDHR5 (11726645_a_at) / RFU RCAN1 (11760418_a_at) / Fold change /veh RCAN1 (11760418_a_at) / RFU FAM167A (11723789_a_at) / Fold change /veh FAM167A (11723789_a_at) / RFU FAM26E (11764081_at) / Fold change /veh FAM26E (11764081_at) / RFU ISYNA1 (11749810_s_at) / Fold change /veh ISYNA1 (11749810_s_at) / RFU ACY1 (11761880_at) / Fold change /veh ACY1 (11761880_at) / RFU 11764098_at / Fold change /veh 11764098_at / RFU SAMD14 (11745864_x_at) / Fold change /veh SAMD14 (11745864_x_at) / RFU NPB (11741838_a_at) / Fold change /veh NPB (11741838_a_at) / RFU TMPRSS6 (11731388_a_at) / Fold change /veh TMPRSS6 (11731388_a_at) / RFU KRTAP10-2 (11738614_at) / Fold change /veh KRTAP10-2 (11738614_at) / RFU ARHGAP8 /// PRR5-ARHGAP8 (11727945_x_at) / Fold change /veh ARHGAP8 /// PRR5-ARHGAP8 (11727945_x_at) / RFU KRTAP5-7 /// NADSYN1 (11734609_at) / Fold change /veh KRTAP5-7 /// NADSYN1 (11734609_at) / RFU RASL12 (11751679_a_at) / Fold change /veh RASL12 (11751679_a_at) / RFU CDKN2B (11736163_a_at) / Fold change /veh CDKN2B (11736163_a_at) / RFU PRF1 (11729649_at) / Fold change /veh PRF1 (11729649_at) / RFU, ZNF638 /// ZNF638-IT1 / Fold change vs veh, ZNF638 /// ZNF638-IT1 / RFU, PANK3 / Fold change vs veh, PANK3 / RFU, SH3YL1 / Fold change vs veh, SH3YL1 / RFU, ZEB2 / Fold change vs veh, ZEB2 / RFU, NRIP1 / Fold change vs veh, NRIP1 / RFU, PTTG1IP / Fold change vs veh, PTTG1IP / RFU, CAPN2 / Fold change vs veh, CAPN2 / RFU, MED14 / Fold change vs veh, MED14 / RFU, SNORA58 / Fold change vs veh, SNORA58 / RFU, C1orf63 / Fold change vs veh, C1orf63 / RFU, LRRFIP1 / Fold change vs veh, LRRFIP1 / RFU, NDUFAF7 / Fold change vs veh, NDUFAF7 / RFU, SLC12A2 / Fold change vs veh, SLC12A2 / RFU, IBTK / Fold change vs veh, IBTK / RFU, ESF1 / Fold change vs veh, ESF1 / Fold change vs veh, TMEM50B / RFU, TAOK1 / Fold change vs veh, TAOK1 / RFU, ACBD3 / Fold change vs veh, ACBD3 / RFU, TMA16 / Fold change vs veh, TMA16 / RFU, RWDD3 / Fold change vs veh, RWDD3 / RFU, BCAT1 / Fold change vs veh, BCAT1 / RFU, EDEM3 / Fold change vs veh, EDEM3 / RFU, TMEM33 / Fold change vs veh, TMEM33 / RFU, WDR75 / Fold change vs veh, WDR75 / RFU, AHCTF1 / Fold change vs veh, AHCTF1 / RFU, TFRC / Fold change vs veh, TFRC / RFU, ZDHHC17 / Fold change vs veh, ZDHHC17 / RFU, NOM1 / Fold change vs veh, NOM1 / RFU, ARL8B / Fold change vs veh, ARL8B / RFU, ZBTB11 / Fold change vs veh, ZBTB11 / RFU, TAMM41 / Fold change vs veh, TAMM41 / RFU, KIAA1704 /// LOC100996395 / Fold change vs veh, KIAA1704 /// LOC100996395 / RFU, ING1 / Fold change vs veh, ING1 / RFU, TRMT61B / Fold change vs veh, TRMT61B / RFU, FUBP3 / Fold change vs veh, FUBP3 / RFU, TP53 / Fold change vs veh, TP53 / RFU, TNKS2 / Fold change vs veh, TNKS2 / RFU, ZFP14 / Fold change vs veh, ZFP14 / RFU, ACTR2 / Fold change vs veh, ACTR2 / RFU, PPP3R1 / Fold change vs veh, PPP3R1 / RFU, PIK3R1 / Fold change vs veh, PIK3R1 / RFU, HNRNPA1 / Fold change vs veh, HNRNPA1 / RFU, RNF170 / Fold change vs veh, RNF170 / RFU, ZNF28 / Fold change vs veh, ZNF28 / RFU, RNGTT / Fold change vs veh, RNGTT / RFU, OGT / Fold change vs veh, OGT / RFU, BRD1 / Fold change vs veh, BRD1 / RFU, MARS / Fold change vs veh, MARS / RFU, ZNF655 / Fold change vs veh, ZNF655 / RFU, FAHD1 / Fold change vs veh, FAHD1 / RFU, BDP1 / Fold change vs veh, BDP1 / RFU, LRRCC1 / Fold change vs veh, LRRCC1 / RFU, ARID1A / Fold change vs veh, ARID1A / RFU, ZNF146 / Fold change vs veh, ZNF146 / RFU, ZNF330 / Fold change vs veh, ZNF330 / RFU, GPN3 / Fold change vs veh, GPN3 / RFU, C9orf123 / Fold change vs veh, C9orf123 / RFU, N4BP2L2 / Fold change vs veh, N4BP2L2 / RFU, ARFIP1 / Fold change vs veh, ARFIP1 / RFU, FAM179B / Fold change vs veh, FAM179B / RFU, BCL10 / Fold change vs veh, BCL10 / RFU, UHRF1BP1L / Fold change vs veh, UHRF1BP1L / RFU, BET1 / Fold change vs veh, BET1 / RFU, CNOT2 / Fold change vs veh, CNOT2 / RFU, ZNF268 / Fold change vs veh, ZNF268 / Fold change vs veh, ZNF507 / RFU, DGCR2 / Fold change vs veh, DGCR2 / RFU, WDSUB1 / Fold change vs veh, WDSUB1 / Fold change vs veh, HSP90B1 /// MIR3652 / RFU, ADSS / Fold change vs veh, ADSS / RFU, GK / Fold change vs veh, GK / RFU, ZNF148 / Fold change vs veh, ZNF148 / RFU, TAF9 / Fold change vs veh, TAF9 / RFU, SLC1A5 / Fold change vs veh, SLC1A5 / RFU, SLMO2 / Fold change vs veh, SLMO2 / RFU, ABCC4 / Fold change vs veh, ABCC4 / RFU, LOC101060439 /// RAP1B / Fold change vs veh, LOC101060439 /// RAP1B / RFU, RFX7 / Fold change vs veh, RFX7 / RFU, GTPBP10 / Fold change vs veh, GTPBP10 / RFU, CNEP1R1 / Fold change vs veh, CNEP1R1 / RFU, BIVM-ERCC5 /// ERCC5 / Fold change vs veh, BIVM-ERCC5 /// ERCC5 / RFU, ILF3 / Fold change vs veh, ILF3 / RFU 11762660_at / Fold change /veh 11762660_at / RFU VCAN (11757783_s_at) / Fold change /veh VCAN (11757783_s_at) / RFU DDX43 (11728927_at) / Fold change /veh DDX43 (11728927_at) / RFU KRT8 (11758188_x_at) / Fold change /veh KRT8 (11758188_x_at) / RFU NKD1 (11759106_at) / Fold change /veh NKD1 (11759106_at) / RFU SRD5A1 (11742802_a_at) / Fold change /veh SRD5A1 (11742802_a_at) / RFU TPSAB1 /// TPSB2 (11721975_s_at) / Fold change /veh TPSAB1 /// TPSB2 (11721975_s_at) / RFU GSTM3 (11746129_a_at) / Fold change /veh GSTM3 (11746129_a_at) / RFU IL23R (11737362_x_at) / Fold change /veh IL23R (11737362_x_at) / RFU TMEM51 (11727254_a_at) / Fold change /veh TMEM51 (11727254_a_at) / RFU PIWIL2 (11732686_x_at) / Fold change /veh PIWIL2 (11732686_x_at) / RFU ORM1 (11744905_x_at) / Fold change /veh ORM1 (11744905_x_at) / RFU CCDC152 (11743942_at) / Fold change /veh CCDC152 (11743942_at) / RFU ECM1 (11717891_a_at) / Fold change /veh ECM1 (11717891_a_at) / RFU IL23R (11748794_a_at) / Fold change /veh IL23R (11748794_a_at) / RFU TNFAIP8L3 (11732012_x_at) / Fold change /veh TNFAIP8L3 (11732012_x_at) / RFU MBOAT4 (11741988_at) / Fold change /veh MBOAT4 (11741988_at) / RFU 11764193_at / Fold change /veh 11764193_at / RFU TMEM53 (11763286_at) / Fold change /veh TMEM53 (11763286_at) / RFU MAGEB2 (11727129_at) / Fold change /veh MAGEB2 (11727129_at) / RFU TMEM200A (11744735_a_at) / Fold change /veh TMEM200A (11744735_a_at) / RFU CCDC152 (11751479_a_at) / Fold change /veh CCDC152 (11751479_a_at) / RFU FAM211A (11726209_a_at) / Fold change /veh FAM211A (11726209_a_at) / RFU RGS16 (11746705_a_at) / Fold change /veh RGS16 (11746705_a_at) / RFU VCAN (11755009_s_at) / Fold change /veh VCAN (11755009_s_at) / RFU RHOB (11743442_s_at) / Fold change /veh RHOB (11743442_s_at) / RFU RGS16 (11720943_a_at) / Fold change /veh RGS16 (11720943_a_at) / RFU RGS16 (11720944_at) / Fold change /veh RGS16 (11720944_at) / RFU, VPS4B / Fold change vs veh, VPS4B / RFU, CREB1 / Fold change vs veh, CREB1 / RFU, DNAJC13 / Fold change vs veh, DNAJC13 / RFU, GNAQ / Fold change vs veh, GNAQ / RFU, CDK5R1 / Fold change vs veh, CDK5R1 / RFU, ZRANB3 / Fold change vs veh, ZRANB3 / RFU, CUL4A / Fold change vs veh, CUL4A / RFU, CCNY / Fold change vs veh, CCNY / RFU, UFL1 / Fold change vs veh, UFL1 / RFU, COG3 / Fold change vs veh, COG3 / RFU, DIAPH2 / Fold change vs veh, DIAPH2 / RFU, SKA2 / Fold change vs veh, SKA2 / RFU, AFF3 / Fold change vs veh, AFF3 / RFU, LMF1 / Fold change vs veh, LMF1 / RFU, IPO11 / Fold change vs veh, IPO11 / RFU, DFFB / Fold change vs veh, DFFB / RFU, FOXP1 / Fold change vs veh, FOXP1 / RFU, CARD8 / Fold change vs veh, CARD8 / RFU, STRN3 / Fold change vs veh, STRN3 / RFU, ADK / Fold change vs veh, ADK / RFU, RASSF2 / Fold change vs veh, RASSF2 / RFU, WIPF1 / Fold change vs veh, WIPF1 / RFU, LARP1B / Fold change vs veh, LARP1B / RFU, RASA1 / Fold change vs veh, RASA1 / RFU, RB1 / Fold change vs veh, RB1 / RFU, PPFIA1 / Fold change vs veh, PPFIA1 / RFU, MAT2A / Fold change vs veh, MAT2A / RFU, CCT5 / Fold change vs veh, CCT5 / RFU, WDR92 / Fold change vs veh, WDR92 / RFU, CUX1 / Fold change vs veh, CUX1 / RFU, TTC7A / Fold change vs veh, TTC7A / RFU, TMEM135 / Fold change vs veh, TMEM135 / RFU, DEPTOR / Fold change vs veh, DEPTOR / RFU, CPM / Fold change vs veh, CPM / RFU, DNAJB6 / Fold change vs veh, DNAJB6 / RFU, CACNA2D3 / Fold change vs veh, CACNA2D3 / RFU, DTX4 / Fold change vs veh, DTX4 / RFU, TFCP2 / Fold change vs veh, TFCP2 / RFU, GMCL1 /// GMCL1P1 / Fold change vs veh, GMCL1 /// GMCL1P1 / RFU, AEBP2 / Fold change vs veh, AEBP2 / RFU, SNHG1 /// SNORD22 /// SNORD25 /// SNORD26 /// SNORD27 /// SNORD28 /// SNORD29 /// SNORD31 / Fold change vs veh, SNHG1 /// SNORD22 /// SNORD25 /// SNORD26 /// SNORD27 /// SNORD28 /// SNORD29 /// SNORD31 / Fold change (Aza/veh), C12orf56 (ProbeSet 11735607_a_at) / Fold change (ACY-1035/veh), C12orf56 (ProbeSet 11735607_a_at) / Fold change (Aza/veh), FGFR1OP (ProbeSet 11751329_s_at) / Fold change (ACY-1035/veh), FGFR1OP (ProbeSet 11751329_s_at) / Fold change (Aza/veh), VPS36 (ProbeSet 11739960_a_at) / Fold change (ACY-1035/veh), VPS36 (ProbeSet 11739960_a_at) / RFU SYPL1 (11715823_x_at) / Fold change /veh SYPL1 (11715823_x_at) / RFU IGFBP7 (11715501_s_at) / Fold change /veh IGFBP7 (11715501_s_at) / RFU REEP3 (11722064_at) / Fold change /veh REEP3 (11722064_at) / RFU IGLL1 (11728026_x_at) / Fold change /veh IGLL1 (11728026_x_at): dose or concentration left out as unconfirmed
Conditions: MV-4-11 cells, 48 hours

Nc1ncn([C@@H]2O[C@H](CO)[C@@H](O)[C@H]2O)c(=O)n1 [azacitidine]
Fold change /veh OLFML3 (11715873_a_at): 0.98
